In PubChem BioAssay (NCI):
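Values below derive from 48-hour exposures of cells grown in 96-well plates, with endpoints linearly interpolated between the two concentrations bracketing the appropriate inhibition level. Abbreviation: GI50, concentration required for 50% inhibition of growth. TGI is the concentration that stops growth completely.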

What was measured:
Assay in all cases: inhibition of tumour cell growth, NCI panel, 48 h
RPMI-8226 leukemia = system: RPMI-8226 leukemia
MDA-MB-231 breast = system: MDA-MB-231 breast
NCI-H460 lung = system: NCI-H460 lung
SF-268 CNS = system: SF-268 CNS
SK-MEL-28 melanoma = system: SK-MEL-28 melanoma
HT29 colon = system: HT29 colon
HCT-116 colon = system: HCT-116 colon
MDA-MB-435 = system: MDA-MB-435
HCC-2998 colon = system: HCC-2998 colon
OVCAR-8 ovarian = system: OVCAR-8 ovarian
T-47D breast = system: T-47D breast
786-0 renal = system: 786-0 renal
NCI-H226 lung = system: NCI-H226 lung
BT-549 breast = system: BT-549 breast
SK-MEL-5 melanoma = system: SK-MEL-5 melanoma
SR leukemia = system: SR leukemia
HS 578T breast = system: HS 578T breast
COLO 205 colon = system: COLO 205 colon
UACC-257 melanoma = system: UACC-257 melanoma
NCI-H522 lung = system: NCI-H522 lung
HOP-62 NSCLC = system: HOP-62 NSCLC
A549 NSCLC = system: A549 NSCLC
SK-MEL-2 melanoma = system: SK-MEL-2 melanoma
MALME-3M melanoma = system: MALME-3M melanoma
CCRF-CEM leukemia = system: CCRF-CEM leukemia
HL-60(TB) leukemia = system: HL-60(TB) leukemia
HOP-92 NSCLC = system: HOP-92 NSCLC
SN12C renal = system: SN12C renal
NCI/ADR-RES ovarian = system: NCI/ADR-RES ovarian
K-562 leukemia = system: K-562 leukemia
NCI-H23 lung = system: NCI-H23 lung
IGROV1 ovarian = system: IGROV1 ovarian
SF-539 CNS = system: SF-539 CNS
MCF7 breast = system: MCF7 breast
SNB-75 CNS = system: SNB-75 CNS
CAKI-1 renal = system: CAKI-1 renal
TK-10 renal = system: TK-10 renal
ACHN renal = system: ACHN renal
DU-145 prostate = system: DU-145 prostate
OVCAR-5 ovarian = system: OVCAR-5 ovarian
OVCAR-4 ovarian = system: OVCAR-4 ovarian
KM12 colon = system: KM12 colon
M14 melanoma = system: M14 melanoma
UACC-62 melanoma = system: UACC-62 melanoma
OVCAR-3 ovarian = system: OVCAR-3 ovarian
U251 CNS = system: U251 CNS
HCT-15 colon = system: HCT-15 colon
SNB-19 CNS = system: SNB-19 CNS
SF-295 CNS = system: SF-295 CNS
SK-OV-3 ovarian = system: SK-OV-3 ovarian
MOLT-4 leukemia = system: MOLT-4 leukemia
PC-3 prostate = system: PC-3 prostate
RXF 393 renal = system: RXF 393 renal
UO-31 renal = system: UO-31 renal
EKVX NSCLC = system: EKVX NSCLC
LOX IMVI melanoma = system: LOX IMVI melanoma
SW-620 colon = system: SW-620 colon

## CCOC(=O)c1c(C)n(Cc2ccc(Cl)cc2Cl)c2c1cc1oc(=O)c(=O)n3c(Cc4ccccc4)nc2c13
RPMI-8226 leukemia
  GI50: 1.71 µM
  TGI: 3.57 µM
MDA-MB-231 breast
  GI50: 2.77 µM
  TGI: 7.23 µM
NCI-H460 lung
  GI50: 2.68 µM
  TGI: 7.06 µM
SF-268 CNS
  GI50: 2.31 µM
  TGI: 5.84 µM
SK-MEL-28 melanoma
  GI50: 11 µM
  TGI: 24.9 µM
HT29 colon
  GI50: 4.65 µM
  TGI: 17.4 µM
HCT-116 colon
  GI50: 2.05 µM
  TGI: 4.87 µM
MDA-MB-435
  GI50: 4.55 µM
  TGI: 16.9 µM
HCC-2998 colon
  GI50: 2.25 µM
  TGI: 5.04 µM
OVCAR-8 ovarian
  GI50: 5.22 µM
  TGI: 25.8 µM
T-47D breast
  GI50: 4.9 µM
  TGI: 22.2 µM
786-0 renal
  GI50: 5.18 µM
  TGI: 19.2 µM
NCI-H226 lung
  GI50: 10.7 µM
  TGI: 25 µM
BT-549 breast
  GI50: 2.55 µM
  TGI: 6.4 µM
SK-MEL-5 melanoma
  GI50: 1.97 µM
  TGI: 3.54 µM
SR leukemia
  GI50: 0.378 µM
  TGI: 2.38 µM
HS 578T breast
  GI50: 1.21 µM
  TGI: 3.12 µM
COLO 205 colon
  GI50: 4.65 µM
  TGI: 25.3 µM
UACC-257 melanoma
  GI50: 17.3 µM
  TGI: 36.3 µM
NCI-H522 lung
  GI50: 6.1 µM
  TGI: 25.5 µM
HOP-62 NSCLC
  GI50: 5.37 µM
  TGI: 18.3 µM
A549 NSCLC
  GI50: 3.64 µM
  TGI: 13.5 µM
SK-MEL-2 melanoma
  GI50: 11.8 µM
  TGI: 32.6 µM
MALME-3M melanoma
  GI50: 5.3 µM
  TGI: 12.9 µM
CCRF-CEM leukemia
  GI50: 1.31 µM
  TGI: 3.19 µM
HL-60(TB) leukemia
  GI50: 2.09 µM
  TGI: 6.09 µM
HOP-92 NSCLC
  GI50: 1.56 µM
  TGI: 3.81 µM
SN12C renal
  GI50: 2.22 µM
  TGI: 4.56 µM
NCI/ADR-RES ovarian
  GI50: 5.46 µM
  TGI: 18.3 µM
K-562 leukemia
  GI50: 3.13 µM
  TGI: 7.18 µM
NCI-H23 lung
  GI50: 2.8 µM
  TGI: 7.3 µM
IGROV1 ovarian
  GI50: 2.11 µM
  TGI: 15.2 µM
SF-539 CNS
  GI50: 8.44 µM
  TGI: 20.7 µM
MCF7 breast
  GI50: 2.52 µM
  TGI: 8.07 µM
SNB-75 CNS
  GI50: 10.1 µM
  TGI: 27.7 µM
CAKI-1 renal
  GI50: 2.69 µM
  TGI: 9.36 µM
TK-10 renal
  GI50: 2.64 µM
  TGI: 6.95 µM
ACHN renal
  GI50: 3.06 µM
  TGI: 11.8 µM
DU-145 prostate
  GI50: 2.45 µM
  TGI: 6.64 µM
OVCAR-5 ovarian
  GI50: 2.73 µM
  TGI: 6.16 µM
OVCAR-4 ovarian
  GI50: 4.45 µM
  TGI: 16.4 µM
KM12 colon
  GI50: 1.63 µM
  TGI: 3.47 µM
M14 melanoma
  GI50: 13 µM
  TGI: 36.7 µM
UACC-62 melanoma
  GI50: 14.5 µM
  TGI: 28.2 µM
OVCAR-3 ovarian
  GI50: 1.91 µM
  TGI: 4.44 µM
U251 CNS
  GI50: 2.45 µM
  TGI: 6.5 µM
HCT-15 colon
  GI50: 3.92 µM
  TGI: 14.8 µM
SNB-19 CNS
  GI50: 6.12 µM
  TGI: 20.9 µM
SF-295 CNS
  GI50: 2.32 µM
  TGI: 10.9 µM
SK-OV-3 ovarian
  GI50: 15.3 µM
  TGI: 30.7 µM
MOLT-4 leukemia
  GI50: 2.12 µM
  TGI: 4.55 µM
PC-3 prostate
  GI50: 2.06 µM
  TGI: 5.01 µM
RXF 393 renal
  GI50: 2.98 µM
  TGI: 7.34 µM
UO-31 renal
  GI50: 3.77 µM
  TGI: 15 µM
EKVX NSCLC
  GI50: 8.05 µM
  TGI: 20.8 µM
LOX IMVI melanoma
  GI50: 1.83 µM
  TGI: 3.38 µM
SW-620 colon
  GI50: 1.95 µM
  TGI: 4.3 µM
